Laboratory results as given in BindingDB's records for doi:10.1016/j.bmcl.2004.08.011 (Abbott Laboratories, 2004).

Target: Protein farnesyltransferase subunit beta/geranylgeranyltransferase type-1 subunit alpha (Mus musculus, UniProt Q61239+Q8K2I1)
Test: Inhibition of H-Ras transformed NIH-3T3-cell proliferation

Row | EC50 | Compound
1 | 77 nM | CC(=O)c1ccc(-c2cc(C#N)ccc2COCc2cncn2Cc2ccc(C#N)cc2)cc1 [4'-acetyl-6-(((1-(4-cyanobenzyl)-1H-imidazol-5-yl)methoxy)methyl)biphenyl-3-carbonitrile]
2 | 1.2 nM | N#Cc1ccc(Cn2cncc2COc2ccc(C#N)c(-c3cccc4ccccc34)c2)cc1 [4-((1-(4-cyanobenzyl)-1H-imidazol-5-yl)methoxy)-2-(naphthalen-1-yl)benzonitrile]
3 | 461 nM | N#Cc1ccc(COCc2cncn2Cc2ccc(C#N)cc2-c2cccc3ccccc23)cc1 [4-[5-(4-cyano-benzyloxymethyl)-imidazol-1-ylmethyl]-3-naphthalen-1-yl-benzonitrile]
4 | 17 nM | CCOc1cccc(-c2cc(C#N)ccc2COCc2cncn2Cc2ccc(C#N)nc2)c1 [5-((5-(((5-cyano-3'-ethoxybiphenyl-2-yl)methoxy)methyl)-1H-imidazol-1-yl)methyl)picolinonitrile]
5 | 16 nM | N#Cc1ccc(COCc2cncn2Cc2ccc(C#N)nc2)c(-c2ccc3c(c2)OCO3)c1 [5-[5-(2-Benzo[1,3]dioxol-5-yl-4-cyano-benzyloxymethyl)-imidazol-1-ylmethyl]-pyridine-2-carbonitrile]
6 | 29 nM | N#Cc1ccc(Cn2cncc2COCc2ccc(C#N)cc2-c2ccc3c(c2)OCO3)nc1 [6-((5-((2-(benzo[d][1,3]dioxol-5-yl)-4-cyanobenzyloxy)methyl)-1H-imidazol-1-yl)methyl)nicotinonitrile]
7 | 34 nM | CCOc1cccc(-c2cc(C#N)ccc2COCc2cncn2Cc2ccc(Cl)cc2)c1 [6-(((1-(4-chlorobenzyl)-1H-imidazol-5-yl)methoxy)methyl)-3'-ethoxybiphenyl-3-carbonitrile]
8 | 1.6 nM | N#Cc1ccc(Cn2cncc2COCc2ccc(C#N)cc2-c2ccc(C(F)(F)F)cc2)cc1 [6-(((1-(4-cyanobenzyl)-1H-imidazol-5-yl)methoxy)methyl)-4'-(trifluoromethyl)biphenyl-3-carbonitrile]
9 | 60 nM | N#Cc1ccc(OCc2cncn2Cc2ccc(C#N)c(-c3cccc4ccccc34)c2)nc1 [6-[3-(4-Cyano-3-naphthalen-1-yl-benzyl)-3H-imidazol-4-ylmethoxy]-nicotinonitrile]
10 | 155 nM | N#Cc1ccc(Cn2cncc2COCc2ccc(C#N)cc2-c2cccc(Cl)c2)nc1 [6-[5-(3''-Chloro-5-cyano-biphenyl-2-ylmethoxymethyl)-imidazol-1-ylmethyl]-nicotinonitrile]
